Measurements from patent US20080171720A1, “Nutritional Supplement For Hiv Patients” (N.V. Nutricia, priority 2005, published 2008).

System: intestinal tight junction permeability
Test: Inflammatory mediated intestinal tight junction permeability
Conditions: no method or data given

Q: With `CCCCC/C=C\C/C=C\C/C=C\CCCCC(=O)O` [GLA, gamma linolenic acid] as the compound, how does the “reduction of inflammatory mediated intestinal tight junction permeability” value read?
A: The value was “effectively reduce inflammatory mediated intestinal tight junction permeability”.
